Data taken from ChEMBL document CHEMBL1145498, “A systematic interaction map of validated kinase inhibitors with Ser/Thr kinases” (Proc Natl Acad Sci U S A, 2007).

Biological target: 5'-AMP-activated protein kinase catalytic subunit alpha-2 (Homo sapiens) (UniProt P54646)
Sequence (P54646 whole entry, looked up): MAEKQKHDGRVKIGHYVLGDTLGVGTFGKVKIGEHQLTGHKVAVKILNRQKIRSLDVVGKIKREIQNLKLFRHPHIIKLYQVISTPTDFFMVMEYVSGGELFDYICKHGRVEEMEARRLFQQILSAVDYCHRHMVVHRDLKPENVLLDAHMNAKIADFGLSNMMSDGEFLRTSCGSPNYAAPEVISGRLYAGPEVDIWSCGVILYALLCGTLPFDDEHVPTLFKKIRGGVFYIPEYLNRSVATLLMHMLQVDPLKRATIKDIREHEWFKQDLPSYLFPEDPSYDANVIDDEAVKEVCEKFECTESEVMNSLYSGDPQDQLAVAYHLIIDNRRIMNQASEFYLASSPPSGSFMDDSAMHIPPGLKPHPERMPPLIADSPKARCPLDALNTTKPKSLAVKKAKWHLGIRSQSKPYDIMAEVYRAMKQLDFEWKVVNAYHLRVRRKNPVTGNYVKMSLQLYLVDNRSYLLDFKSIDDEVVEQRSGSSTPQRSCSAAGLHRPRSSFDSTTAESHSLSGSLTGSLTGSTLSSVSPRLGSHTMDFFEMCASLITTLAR

| SMILES | ΔTm [°C] |
| --- | --- |
| C[C@@H]1C[C@H]2O[C@@H]2/C=C\C=C\C(=O)Cc2c(Cl)c(O)cc(O)c2C(=O)O1 [RADICICOL] | -0.3 |
| Brc1c(Br)c(Br)c2[nH]nnc2c1Br [TETRABROMOBENZOTRIAZOLE] | 0.4 |
| Cc1c2ccncc2c(C)c2c1[nH]c1ccccc12 [ELLIPTECINE] | 1.8 |

Biological target: Calcium/calmodulin-dependent protein kinase kinase 2 (Homo sapiens, UniProt Q96RR4)
Sequence (Q96RR4 2-588 limits assumed): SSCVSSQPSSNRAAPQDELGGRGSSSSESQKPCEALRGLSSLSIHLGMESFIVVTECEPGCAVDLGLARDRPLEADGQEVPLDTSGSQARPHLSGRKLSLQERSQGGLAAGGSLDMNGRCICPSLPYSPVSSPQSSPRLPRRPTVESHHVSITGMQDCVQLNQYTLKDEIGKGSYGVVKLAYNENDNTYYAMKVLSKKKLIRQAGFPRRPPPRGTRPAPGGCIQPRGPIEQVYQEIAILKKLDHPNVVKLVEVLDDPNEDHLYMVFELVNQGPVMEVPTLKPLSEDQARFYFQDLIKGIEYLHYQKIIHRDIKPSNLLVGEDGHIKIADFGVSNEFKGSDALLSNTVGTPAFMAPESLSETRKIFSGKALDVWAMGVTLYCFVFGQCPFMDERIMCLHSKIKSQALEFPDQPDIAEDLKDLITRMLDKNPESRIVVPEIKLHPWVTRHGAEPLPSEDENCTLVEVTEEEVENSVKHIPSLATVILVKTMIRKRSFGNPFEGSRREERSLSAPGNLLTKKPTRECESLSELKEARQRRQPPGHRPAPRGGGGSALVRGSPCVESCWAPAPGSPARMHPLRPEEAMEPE

| SMILES | ΔTm [°C] |
| --- | --- |
| C[C@@H]1C[C@H]2O[C@@H]2/C=C\C=C\C(=O)Cc2c(Cl)c(O)cc(O)c2C(=O)O1 [RADICICOL] | -0.1 |
| Brc1c(Br)c(Br)c2[nH]nnc2c1Br [TETRABROMOBENZOTRIAZOLE] | -0.5 |
| Cc1c2ccncc2c(C)c2c1[nH]c1ccccc12 [ELLIPTECINE] | 1.3 |

Biological target: Casein kinase I isoform gamma-3 (Homo sapiens) (UniProt Q9Y6M4)
Sequence (Q9Y6M4 whole entry, looked up, canonical isoform): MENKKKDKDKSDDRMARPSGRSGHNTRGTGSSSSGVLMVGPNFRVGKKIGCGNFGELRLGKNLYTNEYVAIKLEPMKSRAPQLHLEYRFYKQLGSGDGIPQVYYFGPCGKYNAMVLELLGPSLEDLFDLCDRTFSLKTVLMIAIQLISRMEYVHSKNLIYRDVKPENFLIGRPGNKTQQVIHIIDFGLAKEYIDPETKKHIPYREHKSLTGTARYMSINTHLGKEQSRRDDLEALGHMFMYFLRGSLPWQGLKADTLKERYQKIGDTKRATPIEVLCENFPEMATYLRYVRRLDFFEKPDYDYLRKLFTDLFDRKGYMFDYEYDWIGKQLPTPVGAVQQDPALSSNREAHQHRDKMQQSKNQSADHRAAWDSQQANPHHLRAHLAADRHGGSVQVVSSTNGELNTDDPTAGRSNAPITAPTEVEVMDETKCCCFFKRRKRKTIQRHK

| SMILES | ΔTm [°C] |
| --- | --- |
| C[C@@H]1C[C@H]2O[C@@H]2/C=C\C=C\C(=O)Cc2c(Cl)c(O)cc(O)c2C(=O)O1 [RADICICOL] | 0.1 |
| Brc1c(Br)c(Br)c2[nH]nnc2c1Br [TETRABROMOBENZOTRIAZOLE] | -0.3 |
| Cc1c2ccncc2c(C)c2c1[nH]c1ccccc12 [ELLIPTECINE] | 0.7 |

Biological target: Tyrosine-protein kinase JAK1 (Homo sapiens) (UniProt P23458)

| SMILES | ΔTm [°C] |
| --- | --- |
| C[C@@H]1C[C@H]2O[C@@H]2/C=C\C=C\C(=O)Cc2c(Cl)c(O)cc(O)c2C(=O)O1 [RADICICOL] | -0.2 |
| Brc1c(Br)c(Br)c2[nH]nnc2c1Br [TETRABROMOBENZOTRIAZOLE] | 0.7 |
| Cc1c2ccncc2c(C)c2c1[nH]c1ccccc12 [ELLIPTECINE] | 2.3 |

Biological target: T1, Mitogen-activated protein kinase kinase kinase 5 (Homo sapiens) (UniProt Q99683)
T1 sequence (whole entry): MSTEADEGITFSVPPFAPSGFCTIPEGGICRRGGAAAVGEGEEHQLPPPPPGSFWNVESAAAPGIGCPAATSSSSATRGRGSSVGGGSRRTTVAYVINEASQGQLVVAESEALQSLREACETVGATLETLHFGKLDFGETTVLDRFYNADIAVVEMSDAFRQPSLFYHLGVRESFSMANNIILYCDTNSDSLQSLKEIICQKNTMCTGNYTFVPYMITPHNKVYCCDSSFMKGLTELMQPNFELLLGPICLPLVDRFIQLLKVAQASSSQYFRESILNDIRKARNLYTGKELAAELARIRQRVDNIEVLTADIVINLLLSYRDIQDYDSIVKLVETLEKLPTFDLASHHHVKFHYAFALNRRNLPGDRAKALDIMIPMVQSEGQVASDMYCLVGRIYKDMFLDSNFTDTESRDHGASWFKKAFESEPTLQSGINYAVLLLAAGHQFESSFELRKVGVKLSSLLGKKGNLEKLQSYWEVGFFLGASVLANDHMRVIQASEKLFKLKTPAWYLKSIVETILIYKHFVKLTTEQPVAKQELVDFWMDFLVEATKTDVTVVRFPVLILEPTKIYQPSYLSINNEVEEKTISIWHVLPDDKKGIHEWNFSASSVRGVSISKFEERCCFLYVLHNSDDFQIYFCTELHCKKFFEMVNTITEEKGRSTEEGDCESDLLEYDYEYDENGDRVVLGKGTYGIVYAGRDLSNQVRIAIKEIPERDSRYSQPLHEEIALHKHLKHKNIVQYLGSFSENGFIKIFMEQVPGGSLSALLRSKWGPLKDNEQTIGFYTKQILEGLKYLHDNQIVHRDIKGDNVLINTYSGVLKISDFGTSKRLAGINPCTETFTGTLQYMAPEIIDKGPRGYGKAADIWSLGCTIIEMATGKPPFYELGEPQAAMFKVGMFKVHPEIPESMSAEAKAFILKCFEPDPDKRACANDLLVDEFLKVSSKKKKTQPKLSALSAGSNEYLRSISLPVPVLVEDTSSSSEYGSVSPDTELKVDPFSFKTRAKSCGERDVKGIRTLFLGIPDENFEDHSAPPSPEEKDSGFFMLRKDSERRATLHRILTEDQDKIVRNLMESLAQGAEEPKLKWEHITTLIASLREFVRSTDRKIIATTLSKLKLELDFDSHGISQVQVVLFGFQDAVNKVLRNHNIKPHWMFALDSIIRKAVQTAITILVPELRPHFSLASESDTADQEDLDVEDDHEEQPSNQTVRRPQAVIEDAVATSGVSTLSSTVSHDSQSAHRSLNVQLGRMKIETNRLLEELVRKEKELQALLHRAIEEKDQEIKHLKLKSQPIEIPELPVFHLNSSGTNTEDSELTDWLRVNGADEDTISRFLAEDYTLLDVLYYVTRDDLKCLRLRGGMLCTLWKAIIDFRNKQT

| SMILES | ΔTm [°C] |
| --- | --- |
| C[C@@H]1C[C@H]2O[C@@H]2/C=C\C=C\C(=O)Cc2c(Cl)c(O)cc(O)c2C(=O)O1 [RADICICOL] | -0.2 |
| Brc1c(Br)c(Br)c2[nH]nnc2c1Br [TETRABROMOBENZOTRIAZOLE] | 1.9 |
| Cc1c2ccncc2c(C)c2c1[nH]c1ccccc12 [ELLIPTECINE] | 0.4 |

Biological target: Serine/threonine-protein kinase 26 (Homo sapiens) (UniProt Q9P289)
Sequence (Q9P289 2-416 limits assumed): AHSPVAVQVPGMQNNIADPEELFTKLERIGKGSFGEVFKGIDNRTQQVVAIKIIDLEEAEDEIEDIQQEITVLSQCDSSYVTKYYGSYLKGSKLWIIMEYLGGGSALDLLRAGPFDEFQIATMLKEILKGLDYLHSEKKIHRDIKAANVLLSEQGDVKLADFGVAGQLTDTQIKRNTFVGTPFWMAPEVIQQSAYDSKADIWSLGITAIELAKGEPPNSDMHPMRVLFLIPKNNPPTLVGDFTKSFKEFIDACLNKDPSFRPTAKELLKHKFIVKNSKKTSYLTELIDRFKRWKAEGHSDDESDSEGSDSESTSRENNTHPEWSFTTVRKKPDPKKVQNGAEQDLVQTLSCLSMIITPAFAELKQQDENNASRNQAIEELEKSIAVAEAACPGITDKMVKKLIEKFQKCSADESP

| SMILES | ΔTm [°C] |
| --- | --- |
| C[C@@H]1C[C@H]2O[C@@H]2/C=C\C=C\C(=O)Cc2c(Cl)c(O)cc(O)c2C(=O)O1 [RADICICOL] | -0.2 |
| Brc1c(Br)c(Br)c2[nH]nnc2c1Br [TETRABROMOBENZOTRIAZOLE] | 1.2 |
| Cc1c2ccncc2c(C)c2c1[nH]c1ccccc12 [ELLIPTECINE] | 0.4 |

Biological target: Serine/threonine-protein kinase Nek6 (Homo sapiens) (UniProt Q9HC98)
Sequence (Q9HC98 whole entry): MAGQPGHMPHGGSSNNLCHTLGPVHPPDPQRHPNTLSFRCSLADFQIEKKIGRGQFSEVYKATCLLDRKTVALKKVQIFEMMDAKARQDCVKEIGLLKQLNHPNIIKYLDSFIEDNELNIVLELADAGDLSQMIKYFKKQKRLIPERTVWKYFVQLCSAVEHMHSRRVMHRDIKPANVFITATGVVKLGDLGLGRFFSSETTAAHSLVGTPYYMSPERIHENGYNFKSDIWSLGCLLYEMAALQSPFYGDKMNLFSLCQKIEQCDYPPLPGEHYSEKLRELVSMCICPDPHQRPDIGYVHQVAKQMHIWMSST

| SMILES | ΔTm [°C] |
| --- | --- |
| C[C@@H]1C[C@H]2O[C@@H]2/C=C\C=C\C(=O)Cc2c(Cl)c(O)cc(O)c2C(=O)O1 [RADICICOL] | -0.6 |
| Brc1c(Br)c(Br)c2[nH]nnc2c1Br [TETRABROMOBENZOTRIAZOLE] | 0.6 |
| Cc1c2ccncc2c(C)c2c1[nH]c1ccccc12 [ELLIPTECINE] | 2.5 |

Biological target: Serine/threonine-protein kinase PAK 6 (Homo sapiens) (UniProt Q9NQU5)
Sequence (Q9NQU5 whole entry, looked up): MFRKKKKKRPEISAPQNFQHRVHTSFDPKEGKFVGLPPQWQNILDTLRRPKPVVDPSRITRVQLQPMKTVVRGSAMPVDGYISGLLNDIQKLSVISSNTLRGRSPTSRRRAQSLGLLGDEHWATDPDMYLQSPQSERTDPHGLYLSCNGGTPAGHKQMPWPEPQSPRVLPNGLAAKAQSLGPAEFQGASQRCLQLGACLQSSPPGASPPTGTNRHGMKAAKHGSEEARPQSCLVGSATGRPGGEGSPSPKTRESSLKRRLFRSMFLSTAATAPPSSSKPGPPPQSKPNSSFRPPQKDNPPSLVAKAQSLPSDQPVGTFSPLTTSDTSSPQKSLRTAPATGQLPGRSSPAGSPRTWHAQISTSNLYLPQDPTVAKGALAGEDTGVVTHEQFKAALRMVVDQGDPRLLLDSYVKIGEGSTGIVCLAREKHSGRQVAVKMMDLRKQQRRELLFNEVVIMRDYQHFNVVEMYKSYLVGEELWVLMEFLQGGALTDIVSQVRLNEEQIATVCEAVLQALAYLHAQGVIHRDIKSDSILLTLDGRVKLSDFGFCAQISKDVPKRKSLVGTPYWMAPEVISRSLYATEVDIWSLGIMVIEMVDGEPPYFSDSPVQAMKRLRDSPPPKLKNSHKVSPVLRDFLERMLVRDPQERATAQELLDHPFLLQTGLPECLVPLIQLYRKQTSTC

| SMILES | ΔTm [°C] |
| --- | --- |
| C[C@@H]1C[C@H]2O[C@@H]2/C=C\C=C\C(=O)Cc2c(Cl)c(O)cc(O)c2C(=O)O1 [RADICICOL] | 0.3 |
| Brc1c(Br)c(Br)c2[nH]nnc2c1Br [TETRABROMOBENZOTRIAZOLE] | -0.1 |
| Cc1c2ccncc2c(C)c2c1[nH]c1ccccc12 [ELLIPTECINE] | -0.5 |

Biological target: Cyclin-dependent kinase 16 (Homo sapiens) (UniProt Q00536)
Sequence (Q00536 whole entry): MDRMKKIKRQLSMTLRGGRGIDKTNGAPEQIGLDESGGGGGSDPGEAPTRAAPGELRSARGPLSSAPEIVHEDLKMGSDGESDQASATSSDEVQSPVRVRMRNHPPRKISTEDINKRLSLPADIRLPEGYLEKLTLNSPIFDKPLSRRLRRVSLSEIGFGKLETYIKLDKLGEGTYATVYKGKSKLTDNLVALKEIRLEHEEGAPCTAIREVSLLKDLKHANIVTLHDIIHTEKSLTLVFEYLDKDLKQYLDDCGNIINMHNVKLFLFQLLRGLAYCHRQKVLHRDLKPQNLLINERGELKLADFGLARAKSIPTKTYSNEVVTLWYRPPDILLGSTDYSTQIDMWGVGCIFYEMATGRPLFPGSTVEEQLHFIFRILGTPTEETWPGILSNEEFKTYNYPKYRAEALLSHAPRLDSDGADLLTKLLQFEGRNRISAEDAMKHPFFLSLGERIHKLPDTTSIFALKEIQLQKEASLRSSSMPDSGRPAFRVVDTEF

| SMILES | ΔTm [°C] |
| --- | --- |
| C[C@@H]1C[C@H]2O[C@@H]2/C=C\C=C\C(=O)Cc2c(Cl)c(O)cc(O)c2C(=O)O1 [RADICICOL] | 0.2 |
| Brc1c(Br)c(Br)c2[nH]nnc2c1Br [TETRABROMOBENZOTRIAZOLE] | -0.5 |
| Cc1c2ccncc2c(C)c2c1[nH]c1ccccc12 [ELLIPTECINE] | -0.4 |

Biological target: Serine/threonine-protein kinase pim-2 (Homo sapiens, UniProt Q9P1W9)
Sequence (Q9P1W9 whole entry, looked up): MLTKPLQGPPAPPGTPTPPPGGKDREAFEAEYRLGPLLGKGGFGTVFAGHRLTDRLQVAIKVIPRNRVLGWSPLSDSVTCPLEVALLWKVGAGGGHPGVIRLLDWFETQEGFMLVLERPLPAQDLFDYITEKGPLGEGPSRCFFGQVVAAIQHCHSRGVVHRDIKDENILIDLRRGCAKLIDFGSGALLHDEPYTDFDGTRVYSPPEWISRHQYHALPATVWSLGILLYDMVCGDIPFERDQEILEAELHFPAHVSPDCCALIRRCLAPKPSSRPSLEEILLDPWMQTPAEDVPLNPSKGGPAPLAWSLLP

| SMILES | ΔTm [°C] |
| --- | --- |
| C[C@@H]1C[C@H]2O[C@@H]2/C=C\C=C\C(=O)Cc2c(Cl)c(O)cc(O)c2C(=O)O1 [RADICICOL] | 0.1 |
| Brc1c(Br)c(Br)c2[nH]nnc2c1Br [TETRABROMOBENZOTRIAZOLE] | 4.2 |
| Cc1c2ccncc2c(C)c2c1[nH]c1ccccc12 [ELLIPTECINE] | 7.1 |

Biological target: cAMP-dependent protein kinase catalytic subunit alpha (Homo sapiens) (UniProt P17612)

| SMILES | ΔTm [°C] |
| --- | --- |
| C[C@@H]1C[C@H]2O[C@@H]2/C=C\C=C\C(=O)Cc2c(Cl)c(O)cc(O)c2C(=O)O1 [RADICICOL] | 0.7 |
| Brc1c(Br)c(Br)c2[nH]nnc2c1Br [TETRABROMOBENZOTRIAZOLE] | 0.6 |
| Cc1c2ccncc2c(C)c2c1[nH]c1ccccc12 [ELLIPTECINE] | 5.9 |

Biological target: Serine/threonine-protein kinase 10 (Homo sapiens) (UniProt O94804)
Sequence (O94804 whole entry, looked up): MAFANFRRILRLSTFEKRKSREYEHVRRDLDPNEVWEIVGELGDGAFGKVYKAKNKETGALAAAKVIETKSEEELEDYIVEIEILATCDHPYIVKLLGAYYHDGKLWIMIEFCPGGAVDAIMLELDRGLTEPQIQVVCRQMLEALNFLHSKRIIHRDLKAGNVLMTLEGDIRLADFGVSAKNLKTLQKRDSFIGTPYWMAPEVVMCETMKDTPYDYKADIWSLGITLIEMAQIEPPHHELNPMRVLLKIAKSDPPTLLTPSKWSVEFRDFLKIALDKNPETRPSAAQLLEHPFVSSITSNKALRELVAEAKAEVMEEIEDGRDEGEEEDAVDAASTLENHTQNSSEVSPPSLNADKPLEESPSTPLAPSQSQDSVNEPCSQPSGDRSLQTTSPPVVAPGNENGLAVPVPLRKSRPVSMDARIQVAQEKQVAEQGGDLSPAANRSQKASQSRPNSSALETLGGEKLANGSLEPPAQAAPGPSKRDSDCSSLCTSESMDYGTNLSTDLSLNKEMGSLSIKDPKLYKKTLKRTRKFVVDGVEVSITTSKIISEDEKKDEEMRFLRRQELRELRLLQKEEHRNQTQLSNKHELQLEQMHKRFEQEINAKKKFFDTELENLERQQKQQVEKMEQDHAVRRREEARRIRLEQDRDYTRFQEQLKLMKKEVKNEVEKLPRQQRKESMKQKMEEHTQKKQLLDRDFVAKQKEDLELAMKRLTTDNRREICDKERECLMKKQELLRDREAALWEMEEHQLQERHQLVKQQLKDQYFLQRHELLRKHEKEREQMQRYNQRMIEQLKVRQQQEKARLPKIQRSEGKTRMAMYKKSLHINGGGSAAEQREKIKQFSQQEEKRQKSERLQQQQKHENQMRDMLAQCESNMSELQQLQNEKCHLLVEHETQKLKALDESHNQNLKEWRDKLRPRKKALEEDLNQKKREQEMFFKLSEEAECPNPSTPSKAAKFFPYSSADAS

| SMILES | ΔTm [°C] |
| --- | --- |
| C[C@@H]1C[C@H]2O[C@@H]2/C=C\C=C\C(=O)Cc2c(Cl)c(O)cc(O)c2C(=O)O1 [RADICICOL] | -0.4 |
| Brc1c(Br)c(Br)c2[nH]nnc2c1Br [TETRABROMOBENZOTRIAZOLE] | 0 |
| Cc1c2ccncc2c(C)c2c1[nH]c1ccccc12 [ELLIPTECINE] | 1.9 |

Biological target: T2, Serine/threonine-protein kinase 17A (Homo sapiens) (UniProt Q9UEE5)
T2 sequence (whole entry): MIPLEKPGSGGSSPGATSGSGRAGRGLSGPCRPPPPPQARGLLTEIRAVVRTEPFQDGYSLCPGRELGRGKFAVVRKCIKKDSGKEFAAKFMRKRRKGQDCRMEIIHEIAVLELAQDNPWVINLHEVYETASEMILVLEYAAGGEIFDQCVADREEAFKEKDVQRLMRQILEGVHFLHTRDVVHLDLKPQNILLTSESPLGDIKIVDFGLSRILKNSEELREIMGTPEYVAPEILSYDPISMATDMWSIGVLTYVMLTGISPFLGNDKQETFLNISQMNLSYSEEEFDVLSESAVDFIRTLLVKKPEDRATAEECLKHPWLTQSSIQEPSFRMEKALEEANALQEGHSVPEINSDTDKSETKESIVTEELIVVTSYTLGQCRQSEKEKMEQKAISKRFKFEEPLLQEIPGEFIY

| SMILES | ΔTm [°C] |
| --- | --- |
| C[C@@H]1C[C@H]2O[C@@H]2/C=C\C=C\C(=O)Cc2c(Cl)c(O)cc(O)c2C(=O)O1 [RADICICOL] | 1 |
| Brc1c(Br)c(Br)c2[nH]nnc2c1Br [TETRABROMOBENZOTRIAZOLE] | 4.1 |
| Cc1c2ccncc2c(C)c2c1[nH]c1ccccc12 [ELLIPTECINE] | 0.8 |

Biological target: Serine/threonine-protein kinase 38 (Homo sapiens) (UniProt Q15208)

| SMILES | ΔTm [°C] |
| --- | --- |
| C[C@@H]1C[C@H]2O[C@@H]2/C=C\C=C\C(=O)Cc2c(Cl)c(O)cc(O)c2C(=O)O1 [RADICICOL] | 0.3 |
| Brc1c(Br)c(Br)c2[nH]nnc2c1Br [TETRABROMOBENZOTRIAZOLE] | 1.3 |
| Cc1c2ccncc2c(C)c2c1[nH]c1ccccc12 [ELLIPTECINE] | 1.1 |

Biological target: T3, Serine/threonine-protein kinase VRK3 (Homo sapiens) (UniProt Q8IV63)
T3 sequence (whole entry): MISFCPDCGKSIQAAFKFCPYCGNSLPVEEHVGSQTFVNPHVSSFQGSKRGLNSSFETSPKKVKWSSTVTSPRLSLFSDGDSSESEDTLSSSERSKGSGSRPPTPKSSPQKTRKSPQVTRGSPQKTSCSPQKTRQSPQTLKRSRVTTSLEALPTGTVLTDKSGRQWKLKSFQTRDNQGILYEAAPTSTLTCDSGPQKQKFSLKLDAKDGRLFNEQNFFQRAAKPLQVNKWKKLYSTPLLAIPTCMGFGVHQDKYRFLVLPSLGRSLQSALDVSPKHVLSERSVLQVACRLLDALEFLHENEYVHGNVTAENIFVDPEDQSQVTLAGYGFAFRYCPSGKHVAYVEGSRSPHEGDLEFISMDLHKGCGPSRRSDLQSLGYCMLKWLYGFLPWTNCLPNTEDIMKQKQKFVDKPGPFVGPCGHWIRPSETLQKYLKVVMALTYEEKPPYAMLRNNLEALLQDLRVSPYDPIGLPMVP

| SMILES | ΔTm [°C] |
| --- | --- |
| C[C@@H]1C[C@H]2O[C@@H]2/C=C\C=C\C(=O)Cc2c(Cl)c(O)cc(O)c2C(=O)O1 [RADICICOL] | -0.4 |
| Brc1c(Br)c(Br)c2[nH]nnc2c1Br [TETRABROMOBENZOTRIAZOLE] | -1.2 |
| Cc1c2ccncc2c(C)c2c1[nH]c1ccccc12 [ELLIPTECINE] | 1.3 |
